# Results published in US4562206A, “Orally effective inotropic compounds” (Key Pharmaceuticals, Inc., priority 1984, dated 1985).
# “Also recorded” adds a separate entry of the source. Counter-ions that a name gives are not always drawn.
# Experiments:
# [1] = Blood (plasma) levels during intravenous infusion in anesthetized dog, HPLC with electrochemical detection; format: in vivo; details: i.v. infusion 20 ug/kg/min; for concentration at 10 min / concentration at 20 min / concentration at 0.5 h: plasma, iv; for concentration at 10 min: infusion time 10 mins; for concentration at 20 min: infusion time 20 mins; for concentration at 0.5 h: infusion time 30 mins
# Experimental: The data in Table 1 were obtained from a dog anesthetized with sodium pentobarbital (30 mg/kg, i.v.). The right femoral vein was cannulated for administration of drug and the left femoral vein was used for withdrawal of blood samples. All blood samples were collected in heparinized chilled tubes. The blood was centrifuged to separate red cells and the plasma was frozen.
# After obtaining a control blood sample, dobutamine infusion at the rate of 20 ug/kg/min was maintained for 30 mins. During the infusion, blood samples were drawn at 10, 20, and 30 mins. One hour after completion of the dobutamine infusion, a second control sample of blood was drawn and an infusion of Compound I at 20 ug/kg/min was begun. Samples of blood were taken during the Compound I infusion at 10, 20, and 30 mins.
# The concentrations of Compound I and dobutamine in plasma were measured using HPLC with electrochemical detection. Chromatography was performed using a reverse-phase octadecylsilane (C18) column attached to an amperometric detector equipped with a glassy carbon electrode at a potential of +600 mV. The mobile phase consisted of acetonitrile:pH 3 buffer (15:85); the buffer (pH 3) contained 0.035M KH2 PO4, 0.003M citric acid and 0.002M Na2 EDTA. At a flow rate of 1.5 ml/min, Compound I, dobutamine and the internal standard for the assay (dioxymethylene derivative of dobutamine) eluted in […] respectively.
# In the assay procedure, control plasma (1 mil) spiked with 0, 20, 100, 300 and 500 ng/ml test drug was added to silanized glass tubes (13×128 mm) containing 100 ng of the internal standard as a solution in 100 ul of 5M K2 HPO4. The samples were mixed and extracted twice with 4 ml of ethyl acetate. Following centrifugation, the combined organic extracts were evaporated, the residue dissolved in […] of mobile phase and a 10-15 ul aliquot injected into the chromatograph. Calibration curves were constructed by plotting the peak height ratios of test drug to the internal standard over the concentration range and interpolation of unknown plasma concentrations from the fitted line.
# cardiac contractility [2] = assay: Cardiac contractility (inotropic effect), intravenous infusion, anesthetized open-chest dogs, strain gauge arch on right ventricle; format: in vivo; details: for Inotropic Potency Relative to Dobutamine, Mean ± S.E.: i.v. infusion, based on CC50 (rate that increases contractility by 50%)
# Experimental: (§1) The data in FIGS. 1 and 2 and Table 2 were obtained on dogs anesthetized with sodium pentobarbital (30 mg/kg, i.v.). The animals were placed on artificial respiration and the chest was opened to expose the heart. A Walton-Brodie strain gauge arch was sutured to the right ventricle for measurement of cardiac contractility. Arterial blood pressure was measured from a catheter placed in the abdominal aorta. Cardiac contractility and arterial pressure were recorded continuously on a Grass polygraph. All drugs were dissolved and infused intravenously in 0.9% NaCl solution.
# diastolic blood pressure = assay: Arterial blood pressure change, intravenous infusion, anesthetized open-chest dogs; format: in vivo; details: for Blood Pressure, Mean ± S.E. (change in diastolic blood pressure): dose 4 times larger than CC50, i.v.; for effect on blood pressure: i.v.
# Excerpt: To illustrate the structural specificity of the compounds of the invention, four close structural analogs of Compound I were synthesized and their activity compared to that of Compound I. In these tests dobutamine was used as a standard so that Compound I and the four structural analogs could be compared on a common basis. FIGS. 1 and 2 graphically compares dobutamine, Compound I and Compound V (the closest structural analog of dobutamine and Compound I).
# as §1
# Blood Pressure = change in diastolic blood pressure caused by a dose 4
# times larger than CC50 -
# cardiac contractility [3] = assay: Inotropic response (LV dP/dt) when swallowed, conscious instrumented dogs; format: in vivo; details: 5 mg/kg oral capsule
# Experimental: To test the effectiveness of Compound I when swallowed, five previously trained dogs, instrumented with a miniature pressure transducer for measurement of cardiac contractility were used. On different days the conscious dogs were tested with placebo, dobutamine (5 mg/kg) or Compound I (5 mg/kg).
# Several months prior to doing the procedure described above, a minature pressure transducer was mounted in the left ventricle of each dog's heart. The dogs were trained to swallow capsules and lie quietly for up to 3 hours. During this time, continuous recording of left ventricular pressure was made on a Grass polygraph. Also recorded was an electronically differentiated signal on the left ventricular pressure. This differential is referred to as LV dP/dt. This LV dP/dt is the rate that the left ventricle develops pressure and is accepted as an index of cardiac contractility.
# On each day of testing the dogs were forced to swallow a gelatin capsule that was either empty (placebo), or contained dobutamine (5 mg/kg) or Compound I (5 mg/kg). Recordings were then made of cardiac contractility for 2 hours after the dog swallowed the capsule.
# left ventricular dP/dt = assay: Inotropic response (left ventricular dP/dt) after buccal administration, anesthetized dogs; format: in vivo
# Excerpt: The dogs were anesthetized with sodium pentobarbital as described above and a Millar® transducer-tip catheter positioned in the left ventircle after introduction through the left carotid artery. Left ventricular pressure was obtained from this catheter and electronically differentiated to obtain dP/dt.
# The dogs were placed on their backs, and their heads and noses positioned so that their hard palates were level. After an appropriate period to collect control dP/dt values, the test drug was applied to the hard palate. The test drugs were made up in a solution of 50% ethanol in distilled water adjusting concentrations so that the desired dose was contained in 2.5 ml of solution. The drug solution was applied to a 100 mm^2 area of the hard palate contained by fitting parafilm over the drug solution lying on the palate.
# cardiac contractility [4] = assay: Intravenous infusion rates required to increase cardiac contractility by 50%, anesthetized dogs; format: in vivo
# [5] = Buccal absorption of ester relative to parent (buccal versus intravenous potency comparison); format: in vivo, dogs; details: buccal versus i.v. potency, Compound I-A vs Compound I
# Excerpt: Yet by the buccal route of administration, the ester was more than twice as potent as its parent. Therefore, the ester derivative was better absorbed through the buccal mucosa by a factor of more than eighteen times than was the parent compound.
# [6] = background; cited from earlier work
# [7] = system: cardiac beta1 adrenergic receptors; details: background, Tuttle and Mills, Circ. Res. 36: 185, 1975; cited from earlier work
smiles,measurement,setting,value
"CC(CCc1cccc(C(N)=O)c1)NCCc1ccc(O)c(O)c1 (stereo not shown) [Compound I, N-[2-(3,4-dihydroxyphenyl)ethyl]-1-methyl-3-(3-carbamoylphenyl)propylaminehydrochloride]",Blood levels compared with dobutamine,[1],higher blood levels than dobutamine
same,concentration at 10 min,[1],417 ng/mL
same,concentration at 20 min,[1],451 ng/mL
same,concentration at 0.5 h,[1],874 ng/mL
same,dose relative to that of dobutamine required for equivalent inotropic effect,cardiac contractility [2]; i.v.,about a tenth
same,times more potent than dobutamine,cardiac contractility [2]; i.v.,about ten
same,"Inotropic Potency Relative to Dobutamine, Mean ± S.E.",cardiac contractility [2],9.1 ± 2.4
same,"Blood Pressure, Mean ± S.E. (change in diastolic blood pressure)",diastolic blood pressure,5.3 ± 4.5
same,effect on blood pressure,diastolic blood pressure,no significant change in blood pressure; also recorded: no greater than that of dobutamine
same,inotropic response when swallowed,cardiac contractility [3],strong inotropic response; also recorded: effective when swallowed
same,persistence of inotropic response when swallowed,cardiac contractility [3],more than two
same,"Inotropic Response, Percent Change from Control, Mean ± S.E. (peak change in left ventricular dP/dt)",left ventricular dP/dt; 2 mg/kg,16.6 ± 6%
same,Intravenous infusion rate required to increase cardiac contractility by 50%,"cardiac contractility [4]; Dog #1, i.v.",0.29 µg/kg/min
same,Intravenous infusion rate required to increase cardiac contractility by 50%,"cardiac contractility [4]; Dog #2, i.v.",0.097 µg/kg/min
"CC(CCc1cccc(C(N)=O)c1)NCCc1ccc(OC(=O)C(C)C)c(OC(=O)C(C)C)c1 (stereo not shown) [Compound I-A, N[2-(3,4-diisobutyryloxyphenyl)ethyl]-1-methyl-3-(3-carbamoylphenyl)propylamine hydrochloride]","Inotropic Response, Percent Change from Control, Mean ± S.E. (peak change in left ventricular dP/dt)",left ventricular dP/dt; 1.39 mg/kg,61 ± 3%
same,"inotropic response, buccal",left ventricular dP/dt; anesthetized dogs,the most effective by this route
same,buccal potency relative to Compound I,"left ventricular dP/dt; molar basis, anesthetized dogs",more than twice
same,Dose Ratio (Compound I-A to Compound I),"cardiac contractility [4]; Dog #1, i.v.",9.6
same,Intravenous infusion rate required to increase cardiac contractility by 50%,"cardiac contractility [4]; Dog #1, i.v.",2.8 µg/kg/min
same,Dose Ratio (Compound I-A to Compound I),"cardiac contractility [4]; Dog #2, i.v.",12.9
same,Intravenous infusion rate required to increase cardiac contractility by 50%,"cardiac contractility [4]; Dog #2, i.v.",1.25 µg/kg/min
same,times less potent than parent catechol (Compound I),cardiac contractility [4]; intravenous infusion,more than nine
same,factor of better absorption through the buccal mucosa than parent compound,[5],more than eighteen
CC(CCc1cccc(C(N)=O)c1)NCCc1ccc(OC(=O)C(C)(C)C)c(OC(=O)C(C)(C)C)c1 (stereo not shown) [Compound I-B],"Inotropic Response, Percent Change from Control, Mean ± S.E. (peak change in left ventricular dP/dt)",left ventricular dP/dt; 1.39 mg/kg,13 ± 7%
same,"inotropic response, buccal",left ventricular dP/dt; anesthetized dogs,small response
NC(=O)c1cccc(CCCNCCc2ccc(O)c(O)c2)c1 [Compound III],inotropic potency,cardiac contractility [2]; i.v.,potency was reduced
same,"Inotropic Potency Relative to Dobutamine, Mean ± S.E.",cardiac contractility [2],1.4 ± 1
same,"Blood Pressure, Mean ± S.E. (change in diastolic blood pressure)",diastolic blood pressure,22.3 ± 16.2
same,effect on blood pressure,diastolic blood pressure,undesired elevation in blood pressure
NC(=O)c1cccc(CCNCCc2ccc(O)c(O)c2)c1 [Compound II],inotropic potency,cardiac contractility [2]; i.v.,not significantly better than that of dobutamine
same,"Inotropic Potency Relative to Dobutamine, Mean ± S.E.",cardiac contractility [2],1.5 ± 0.1
same,"Blood Pressure, Mean ± S.E. (change in diastolic blood pressure)",diastolic blood pressure,-8 ± 5
same,effect on blood pressure,diastolic blood pressure,no rise in blood pressure
NC(=O)c1ccc(CCNCCc2ccc(O)c(O)c2)cc1 [Compound IV],"Inotropic Potency Relative to Dobutamine, Mean ± S.E.",cardiac contractility [2],1.38 ± 0.2
same,"Blood Pressure, Mean ± S.E. (change in diastolic blood pressure)",diastolic blood pressure,26 ± 10
same,effect on blood pressure,diastolic blood pressure,the blood pressure side effect reappears
CC(CCc1ccc(C(N)=O)cc1)NCCc1ccc(OC(=O)C(C)C)c(OC(=O)C(C)C)c1 (stereo not shown) [Compound V-A],"Inotropic Response, Percent Change from Control, Mean ± S.E. (peak change in left ventricular dP/dt)",left ventricular dP/dt; 1.39 mg/kg,No response
same,"inotropic response, buccal",left ventricular dP/dt; anesthetized dogs,no response
CC(CCc1ccc(C(N)=O)cc1)NCCc1ccc(O)c(O)c1 (stereo not shown) [Compound V],cardiac potency relative to that with carbamyl group in meta position (Compound I),cardiac contractility [2]; i.v.,less than a third
same,"Inotropic Potency Relative to Dobutamine, Mean ± S.E.",cardiac contractility [2],2.9 ± 0.3
same,effect on blood pressure,diastolic blood pressure,dangerous rise in blood pressure
"CC(CCc1ccc(O)cc1)NCCc1ccc(O)c(O)c1 (stereo not shown) [Dobutamine, reference compound]",concentration at 10 min,[1],155 ng/mL
same,concentration at 20 min,[1],176 ng/mL
same,concentration at 0.5 h,[1],158 ng/mL
same,"Blood Pressure, Mean ± S.E. (change in diastolic blood pressure)",diastolic blood pressure,7.8 ± 4.5
same,inotropic response when swallowed,cardiac contractility [3],did not produce a response significantly better than the placebo
same,"Inotropic Response, Percent Change from Control, Mean ± S.E. (peak change in left ventricular dP/dt)",left ventricular dP/dt; 5 mg/kg,2.7 ± 2%
same,clearance from the blood,[6],rapidly cleared from the blood
same,cardioselectivity,[7],cardioselective in its actions
